In US10519134B2, “Pyrazole compounds and methods of making and using same” (Lundbeck La Jolla Research Center, Inc., priority 2015, dated 2019):

Columns and labels:
[1] = molecular target: T1, MAGL (Mus musculus, UniProt O35678); assay: In vitro competitive activity-based protein profiling (mouse), MAGL gel band; type: biochemical; conditions: for IC50: mouse; for inhibition at 1 µM: read-out: MAGL % inh. 1 μM
T1 construct: Proteomes (mouse brain membrane fraction or cell lysates); from tissue; host or cells: mouse brain membrane fraction (or cell lysates)
T1 sequence (O35678 1-303): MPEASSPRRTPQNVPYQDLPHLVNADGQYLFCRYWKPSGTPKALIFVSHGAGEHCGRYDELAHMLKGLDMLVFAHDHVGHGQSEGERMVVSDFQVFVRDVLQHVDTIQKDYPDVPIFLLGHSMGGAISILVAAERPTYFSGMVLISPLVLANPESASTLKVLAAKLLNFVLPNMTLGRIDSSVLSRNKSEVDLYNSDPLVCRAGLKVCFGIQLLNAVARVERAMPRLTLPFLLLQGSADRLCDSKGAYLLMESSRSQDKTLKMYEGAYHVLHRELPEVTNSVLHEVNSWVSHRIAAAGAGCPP
Summary of the method: (§1)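 Gel-based competitive ABPP: proteome 1.0 mg/mL, inhibitor 30 min 37 °C, then FP-Rh or HT-01 probe (stock 50 μM) 30 min 37 °C; SDS quench, SDS-PAGE, in-gel fluorescence of the enzyme band quantified.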

[2] = molecular target: T1, MAGL; assay: Mouse brain proteomes from inhibitor treated mice (oral gavage, sacrificed 4 h after administration); type: in vivo; conditions: read-out: MAGL % inh. 5 mg/kg
Description: Compounds are tested to assess their MAGL and other serine hydrolase activity using the following in vitro and in vivo assays.
Preparation of Mouse Brain Proteomes from Inhibitor Treated Mice.
Inhibitors were administered to wild-type C57Bl/6J by oral gavage in a vehicle of polyethylene glycol. Each animal was sacrificed 4 h following administration and brain proteomes were prepared and analyzed according to previously established methods (See Niphakis, M. J., et al. (2011) ACS Chem. Neurosci. and Long, J. Z., et al. Nat. Chem. Biol. 5:37-44)

[3] = molecular target: T2, FAAH (Mus musculus, UniProt O08914); assay: In vitro competitive activity-based protein profiling (mouse), FAAH gel band; type: biochemical; conditions: for IC50: mouse; for inhibition at 1 µM: read-out: FAAH % inh. 1 μM
T2 construct: Proteomes (mouse brain membrane fraction or cell lysates); from tissue; host or cells: mouse brain membrane fraction (or cell lysates)
T2 sequence (O08914 1-579): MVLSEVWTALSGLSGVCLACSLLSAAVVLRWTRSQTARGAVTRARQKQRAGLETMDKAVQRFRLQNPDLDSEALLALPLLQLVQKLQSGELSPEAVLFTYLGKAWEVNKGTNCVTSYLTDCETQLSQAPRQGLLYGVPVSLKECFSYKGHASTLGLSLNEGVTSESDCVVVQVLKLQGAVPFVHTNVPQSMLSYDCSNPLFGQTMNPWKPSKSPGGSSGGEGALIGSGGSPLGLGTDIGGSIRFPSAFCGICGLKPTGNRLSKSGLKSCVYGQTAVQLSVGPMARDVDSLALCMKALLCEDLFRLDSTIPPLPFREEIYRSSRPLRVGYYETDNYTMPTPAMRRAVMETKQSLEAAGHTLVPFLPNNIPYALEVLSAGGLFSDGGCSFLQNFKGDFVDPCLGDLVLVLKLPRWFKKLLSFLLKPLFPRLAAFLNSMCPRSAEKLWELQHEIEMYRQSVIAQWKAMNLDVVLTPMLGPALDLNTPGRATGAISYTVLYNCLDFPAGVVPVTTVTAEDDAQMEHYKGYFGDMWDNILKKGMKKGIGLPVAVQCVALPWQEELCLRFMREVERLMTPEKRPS
Summary of the method: as §1

| Compound | IC50 [1] [nM] | inhibition at 1 µM [1] [%] | inhibition at 5 mg/kg [2] [%] | IC50 [3] [nM] | inhibition at 1 µM [3] [%] |
| --- | --- | --- | --- | --- | --- |
| CC(=O)Nc1ccn(C(=O)N2CCC3(CCCN3Cc3cc(OC4CCN(C5CC5)CC4)cc(C(F)(F)F)c3)CC2)n1 [Example 82, N-(1-(1-(3-(1-cyclopropylpiperidin-4-yloxy)-5-(trifluoromethyl)benzyl)-1,8-diazaspiro[4.5]decane-8-carbonyl)-1H-pyrazol-3-yl)acetamide] | ≤ 100 | ≥ 75 | 0 to 25 | 1000 to 10000 | 0 to 25 |
| CC(=O)Nc1ccn(C(=O)N2CCC3(CCCN3Cc3ccc(C(F)(F)F)cc3OC3CCN(C4CC4)CC3)CC2)n1 [Example 81, N-(1-(1-(2-(1-cyclopropylpiperidin-4-yloxy)-4-(trifluoromethyl)benzyl)-1,8-diazaspiro[4.5]decane-8-carbonyl)-1H-pyrazol-3-yl)acetamide] | ≤ 100 | ≥ 75 | 0 to 25 | 1000 to 10000 | 0 to 25 |
| CC(=O)Nc1ccn(C(=O)N2CCC3(CCCN3Cc3ccc(C(F)(F)F)c(C)c3)CC2)n1 [Example 93, N-(1-(1-(3-methyl-4-(trifluoromethyl)benzyl)-1,8-diazaspiro[4.5]decane-8-carbonyl)-1H-pyrazol-3-yl)acetamide] | ≤ 100 | ≥ 75 | 50 to 75 | 1000 to 10000 | 0 to 25 |
| CC(=O)Nc1ccn(C(=O)N2CCN(Cc3ccc(Cl)cc3N3CCC4(CC3)CCN(S(C)(=O)=O)C4)CC2)n1 [Example 54, N-(1-(4-(4-chloro-2-(2-(methylsulfonyl)-2,8-diazaspiro[4.5]decan-8-yl)benzyl)piperazine-1-carbonyl)-1H-pyrazol-3-yl)acetamide] | ≤ 100 | ≥ 75 | 0 to 25 | 1000 to 10000 | 0 to 25 |
| CC(=O)Nc1ccn(C(=O)N2CCN(Cc3cc(OCC(=O)N4CCCC4)cc(C(F)(F)F)c3)CC2)n1 [Example 80, N-(1-(4-(3-(2-oxo-2-(pyrrolidin-1-yl)ethoxy)-5-(trifluoromethyl)benzyl)piperazine-1-carbonyl)-1H-pyrazol-3-yl)acetamide] | ≤ 100 | ≥ 75 | 0 to 25 | 1000 to 10000 | 0 to 25 |
| CC(=O)Nc1ccn(C(=O)N2CCC3(CCCN3Cc3ccc(Cl)c(N4CCOCC4)c3)CC2)n1 [Example 103, N-(1-(1-(4-chloro-3-morpholinobenzyl)-1,8-diazaspiro[4.5]decane-8-carbonyl)-1H-pyrazol-3-yl)acetamide] | ≤ 100 | ≥ 75 | 0 to 25 | 1000 to 10000 | 0 to 25 |
| CC(=O)Nc1ccn(C(=O)N2CCC3(CCCN3Cc3ccc(N4CCOCC4)c(C(F)(F)F)c3)CC2)n1 [Example 101, N-(1-(1-(4-morpholino-3-(trifluoromethyl)benzyl)-1,8-diazaspiro[4.5]decane-8-carbonyl)-1H-pyrazol-3-yl)acetamide] | ≤ 100 | ≥ 75 | 25 to 50 | 1000 to 10000 | 0 to 25 |
| CC(=O)Nc1ccn(C(=O)N2CCC3(CCCN3Cc3ccc(C(F)(F)F)cc3N3CC4COCC4C3)CC2)n1 (stereo not shown) [Example 32, N-(1-(1-(2-(dihydro-1H-furo[3,4-c]pyrrol-5(3H,6H,6aH)-yl)-4-(trifluoromethyl)benzyl)-1,8-diazaspiro[4.5]decane-8-carbonyl)-1H-pyrazol-3-yl)acetamide] | ≤ 100 | ≥ 75 | 25 to 50 | 1000 to 10000 | 0 to 25 |
| CC(=O)Nc1ccn(C(=O)N2CCC3(CCCN3Cc3ccc(N4CCCC4)c(C(F)(F)F)c3)CC2)n1 [Example 102, N-(1-(1-(4-(pyrrolidin-1-yl)-3-(trifluoromethyl)benzyl)-1,8-diazaspiro[4.5]decane-8-carbonyl)-1H-pyrazol-3-yl)acetamide] | ≤ 100 | ≥ 75 | 0 to 25 | 1000 to 10000 | 0 to 25 |
| CC(=O)Nc1ccn(C(=O)N2CCC3(CCCN3Cc3cc(N4CC5CN(C(C)=O)CC5C4)cc(C(F)(F)F)c3)CC2)n1 (stereo not shown) [Example 69, N-(1-(1-(3-(5-acetylhexahydropyrrolo[3,4-c]pyrrol-2(1H)-yl)-5-(trifluoromethyl)benzyl)-1,8-diazaspiro[4.5]decane-8-carbonyl)-1H-pyrazol-3-yl)acetamide] | 100 to 1000 | ≥ 75 | 0 to 25 | 1000 to 10000 | 0 to 25 |

Further lines, results first:

| IC50 [1] [nM] | inhibition at 1 µM [1] [%] | inhibition at 5 mg/kg [2] [%] | IC50 [3] [nM] | inhibition at 1 µM [3] [%] | Compound |
| --- | --- | --- | --- | --- | --- |
| ≤ 100 | ≥ 75 | 0 to 25 | 1000 to 10000 | 25 to 50 | CC(=O)Nc1ccn(C(=O)N2CCC3(CCCN3Cc3ccc(C(F)(F)F)cc3N3CCC(F)(F)CC3)CC2)n1 [Example 29, N-(1-(1-(2-(4,4-difluoropiperidin-1-yl)-4-(trifluoromethyl)benzyl)-1,8-diazaspiro[4.5]decane-8-carbonyl)-1H-pyrazol-3-yl)acetamide] |
| ≤ 100 | ≥ 75 | 0 to 25 | 1000 to 10000 | 0 to 25 | CCN1CCN(c2cc(C(F)(F)F)ccc2CN2CCN(C(=O)n3ccc(NC(C)=O)n3)CC2)CC1 [Example 48, N-(1-(4-(2-(4-ethylpiperazin-1-yl)-4-(trifluoromethyl)benzyl)piperazine-1-carbonyl)-1H-pyrazol-3-yl)acetamide] |
| ≤ 100 | ≥ 75 | 0 to 25 | 1000 to 10000 | 0 to 25 | CC(=O)Nc1ccn(C(=O)N2CCC3(CCCN3Cc3ccc(C(F)(F)F)cc3N3CCC4(CCOCC4)C3)CC2)n1 [Example 28, N-(1-(1-(2-(8-oxa-2-azaspiro[4.5]decan-2-yl)-4-(trifluoromethyl)benzyl)-1,8-diazaspiro[4.5]decane-8-carbonyl)-1H-pyrazol-3-yl)acetamide] |
| ≤ 100 | ≥ 75 | 25 to 50 | 1000 to 10000 | 0 to 25 | CC(=O)Nc1ccn(C(=O)N2CCN(Cc3ccc(Cl)cc3N3CCC4(CCOCC4)C3)CC2)n1 [Example 56, N-(1-(4-(4-chloro-2-(8-oxa-2-azaspiro[4.5]decan-2-yl)benzyl)piperazine-1-carbonyl)-1H-pyrazol-3-yl)acetamide] |
| ≤ 100 | ≥ 75 | 0 to 25 | 1000 to 10000 | 0 to 25 | CC(=O)Nc1ccn(C(=O)N2CCC3(CCCN3Cc3ccc(C(F)(F)F)cc3N3CCC4(CC3)CCN(S(C)(=O)=O)C4)CC2)n1 [Example 26, N-(1-(1-(2-(2-(methylsulfonyl)-2,8-diazaspiro[4.5]decan-8-yl)-4-(trifluoromethyl)benzyl)-1,8-diazaspiro[4.5]decane-8-carbonyl)-1H-pyrazol-3-yl)acetamide] |
| ≤ 100 | ≥ 75 | 0 to 25 | 1000 to 10000 | 0 to 25 | CC(=O)Nc1ccn(C(=O)N2CCN(Cc3ccc(C(F)(F)F)cc3N3CCC4(C3)CN(S(C)(=O)=O)C4)CC2)n1 [Example 44, N-(1-(4-(2-(2-(methylsulfonyl)-2,6-diazaspiro[3.4]octan-6-yl)-4-(trifluoromethyl)benzyl)piperazine-1-carbonyl)-1H-pyrazol-3-yl)acetamide] |
| ≤ 100 | ≥ 75 | ≥ 75 | 1000 to 10000 | 0 to 25 | CC(=O)Nc1ccn(C(=O)N2CCN(Cc3ccc(Cl)cc3N3CCCCC3)CC2)n1 [Example 50, N-(1-(4-(4-chloro-2-(piperidin-1-yl)benzyl)piperazine-1-carbonyl)-1H-pyrazol-3-yl)acetamide] |
